# How the values were obtained:
# Experiment in all cases: relative viability (nuclei count vs DMSO), 5 days (fraction); higher = more cells survive
# Tipifarnib + Luminespib = compound: Cn1cncc1[C@@](N)(c1ccc(Cl)cc1)c1ccc2c(c1)c(-c1cccc(Cl)c1)cc(=O)n2C [Tipifarnib] + CCNC(=O)c1noc(-c2cc(C(C)C)c(O)cc2O)c1-c1ccc(CN2CCOCC2)cc1 [Luminespib] (partner 0.01 µM)
# Outline: (§1)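 Lung cancer cell lines in 1536-well plates were dosed by pin tool the day after seeding, either with one drug alone or with a fixed anchor-drug dose plus five library-drug doses (not always all listed) in √10 steps. After 5 days, cells were fixed and their nuclei stained in one step (final 0.05% Triton X-100, 1% formaldehyde, 1 ug/ml Hoechst), then counted on 4× images. Relative viability is the nuclei count in treated wells divided by that in vehicle wells. Values are medians of duplicate plates.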
# Tipifarnib + Foretinib = compound: Cn1cncc1[C@@](N)(c1ccc(Cl)cc1)c1ccc2c(c1)c(-c1cccc(Cl)c1)cc(=O)n2C [Tipifarnib] + COc1cc2c(Oc3ccc(NC(=O)C4(C(=O)Nc5ccc(F)cc5)CC4)cc3F)ccnc2cc1OCCCN1CCOCC1 [Foretinib] (partner 0.25 µM)
# Outline: as §1
# Tipifarnib + Dasatinib = compound: Cn1cncc1[C@@](N)(c1ccc(Cl)cc1)c1ccc2c(c1)c(-c1cccc(Cl)c1)cc(=O)n2C [Tipifarnib] + Cc1nc(Nc2ncc(C(=O)Nc3c(C)cccc3Cl)s2)cc(N2CCN(CCO)CC2)n1 [Dasatinib] (partner 0.075 µM)
# Outline: as §1
# Tipifarnib + Decitabine = compound: Cn1cncc1[C@@](N)(c1ccc(Cl)cc1)c1ccc2c(c1)c(-c1cccc(Cl)c1)cc(=O)n2C [Tipifarnib] + Nc1ncn([C@H]2C[C@H](O)[C@@H](CO)O2)c(=O)n1 [Decitabine] (partner 2 µM)
# Outline: as §1
Cell Line,relative viability (Tipifarnib + Luminespib; first compound 0.01 µM),relative viability (Tipifarnib + Luminespib; first compound 0.03162 µM),relative viability (Tipifarnib + Luminespib; first compound 0.1 µM),relative viability (Tipifarnib + Luminespib; first compound 0.3162 µM),relative viability (Tipifarnib + Luminespib; first compound 1 µM),relative viability (Tipifarnib + Foretinib; first compound 0.01 µM),relative viability (Tipifarnib + Foretinib; first compound 0.03162 µM),relative viability (Tipifarnib + Foretinib; first compound 0.1 µM),relative viability (Tipifarnib + Foretinib; first compound 0.3162 µM),relative viability (Tipifarnib + Foretinib; first compound 1 µM),relative viability (Tipifarnib + Dasatinib; first compound 0.01 µM),relative viability (Tipifarnib + Dasatinib; first compound 0.03162 µM),relative viability (Tipifarnib + Dasatinib; first compound 0.1 µM),relative viability (Tipifarnib + Dasatinib; first compound 0.3162 µM),relative viability (Tipifarnib + Dasatinib; first compound 1 µM),relative viability (Tipifarnib + Decitabine; first compound 0.01 µM),relative viability (Tipifarnib + Decitabine; first compound 0.03162 µM),relative viability (Tipifarnib + Decitabine; first compound 0.1 µM),relative viability (Tipifarnib + Decitabine; first compound 0.3162 µM),relative viability (Tipifarnib + Decitabine; first compound 1 µM)
LOU-NH91,0.321,0.336,0.323,0.322,0.323,0.943,1,0.83,0.695,0.693,0.53,0.505,0.507,0.451,0.338,0.804,0.791,0.801,0.664,0.738
LU99A,0.343,0.22,0.241,0.207,0.233,0.757,0.651,0.653,0.497,0.395,0.68,0.524,0.432,0.205,0.306,0.982,0.6,0.481,0.456,0.399
LXF-289,0.651,0.68,0.701,0.554,0.444,0.998,0.966,0.858,0.825,0.824,0.218,0.237,0.249,0.217,0.0926,0.415,0.391,0.429,0.348,0.377
NCI-H23,0.243,0.242,0.223,0.199,0.24,1.04,0.873,0.759,0.688,0.511,0.76,0.711,0.667,0.473,0.282,0.333,0.349,0.307,0.266,0.281
NCI-H322M,0.854,0.85,0.676,0.665,0.554,0.964,1.15,0.849,0.876,0.783,0.236,0.27,0.259,0.246,0.285,0.713,0.751,0.631,0.701,0.666
NCI-H358,0.246,0.297,0.212,0.212,0.214,0.884,0.761,0.563,0.433,0.296,0.142,0.224,0.157,0.169,0.155,0.202,0.203,0.243,0.278,0.183
NCI-H441,0.39,0.355,0.242,0.315,0.267,0.955,0.699,0.73,0.72,0.594,0.592,0.516,0.484,0.396,0.277,0.217,0.241,0.237,0.204,0.183
NCI-H460,0.0293,0.0319,0.0244,0.0236,0.0186,1,0.872,0.624,0.581,0.207,0.512,0.514,0.307,0.146,0.0594,0.479,0.33,0.283,0.15,0.0821
NCI-H520,0.235,0.233,0.207,0.207,0.23,0.978,0.614,0.681,0.506,0.351,0.163,0.185,0.183,0.163,0.142,0.583,0.469,0.627,0.401,0.424
NCI-H596,1.08,0.796,0.849,0.828,0.63,1.05,0.857,0.619,0.569,0.53,0.612,0.653,0.527,0.423,0.384,0.96,0.918,0.963,0.558,0.824
NCI-H647,0.239,0.155,0.102,0.0914,0.0951,1.44,0.78,0.95,0.379,0.534,0.205,0.159,0.167,0.127,0.0682,0.453,0.305,0.261,0.185,0.186
NCI-H650,0.888,0.697,0.61,0.57,0.442,1.21,0.999,0.934,0.749,0.704,0.421,0.375,0.366,0.284,0.266,0.352,0.33,0.341,0.251,0.305
NCI-H661,0.898,0.844,0.847,0.713,0.669,1.03,1.03,0.936,0.793,0.83,1.11,0.949,0.914,0.601,0.619,0.646,0.564,0.525,0.503,0.531
NCI-H727,0.341,0.401,0.533,0.462,0.432,1.04,0.875,0.795,0.976,0.944,0.443,0.422,0.421,0.503,0.62,0.862,0.811,0.855,0.765,0.851
NCI-H838,0.41,0.266,0.212,0.21,0.211,1.01,0.805,0.848,0.695,0.75,0.322,0.296,0.233,0.263,0.237,0.466,0.452,0.46,0.413,0.38
NCI-H1355,0.76,0.61,0.525,0.532,0.433,1.12,0.94,0.855,0.694,0.734,0.684,0.687,0.524,0.496,0.443,0.372,0.397,0.328,0.317,0.321

# — the supplement of paper PMC10307832
